Assay results reported in patent US20090176807A1, “GLUCOCORTICOID MIMETICS, METHODS OF MAKING THEM, PHARMACEUTICAL COMPOSITIONS, AND USES THEREOF” (priority 2005, published 2009).

Each compound was assayed against T1, human glucocorticoid receptor (GR) complex (Homo sapiens, UniProt P04150) (assay: Glucocorticoid receptor competitive binding assay (fluorescence polarization)). Settings: competition with TAMRA-labeled dexamethasone, result in words only.
T1 construct: made in house; host or cells: insect expression system (baculovirus lysate)
T1 sequence (P04150 1-777): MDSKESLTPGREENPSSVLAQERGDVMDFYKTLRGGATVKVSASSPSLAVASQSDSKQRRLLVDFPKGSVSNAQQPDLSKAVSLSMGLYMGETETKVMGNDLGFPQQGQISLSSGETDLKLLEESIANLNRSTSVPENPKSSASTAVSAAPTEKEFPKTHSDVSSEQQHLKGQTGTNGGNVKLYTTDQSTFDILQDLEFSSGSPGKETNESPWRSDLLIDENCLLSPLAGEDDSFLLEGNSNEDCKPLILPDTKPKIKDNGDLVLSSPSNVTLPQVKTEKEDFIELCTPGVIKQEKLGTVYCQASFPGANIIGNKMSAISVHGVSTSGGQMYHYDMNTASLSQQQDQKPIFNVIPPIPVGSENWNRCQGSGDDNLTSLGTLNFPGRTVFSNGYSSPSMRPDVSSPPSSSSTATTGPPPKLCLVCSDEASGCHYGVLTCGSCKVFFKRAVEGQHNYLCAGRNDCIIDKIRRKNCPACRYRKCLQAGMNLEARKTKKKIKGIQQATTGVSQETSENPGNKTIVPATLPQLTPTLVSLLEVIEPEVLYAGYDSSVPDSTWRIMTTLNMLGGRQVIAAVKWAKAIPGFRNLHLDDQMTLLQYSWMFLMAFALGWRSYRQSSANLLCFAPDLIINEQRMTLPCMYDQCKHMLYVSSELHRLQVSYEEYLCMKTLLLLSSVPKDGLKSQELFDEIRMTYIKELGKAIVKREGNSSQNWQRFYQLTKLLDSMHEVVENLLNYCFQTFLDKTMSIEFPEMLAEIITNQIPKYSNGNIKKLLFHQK
Procedure: Compounds of the invention were evaluated for binding to the steroid receptor by a fluorescence polarization competitive binding assay.
The wavelengths for maximum excitation and emission of the fluorescent probe should first be measured. An example of such a probe is rhodamine (TAMRA)-labeled dexamethasone.
The affinity of the probe for the steroid receptor was then determined in a titration experiment. The fluorescence polarization value of the probe in assay buffer was measured on an SLM-8100 fluorometer using the excitation and emission maximum values described above. Aliquots of expression vector lysate were added and fluorescence polarization was measured after each addition until no further change in polarization value was observed. Non-linear least squares regression analysis was used to calculate the dissociation constant of the probe from the polarization values obtained for lysate binding to the probe.
This assay uses fluorescence polarization (FP) to quantitate the ability of test compounds to compete with tetramethyl rhodamine (TAMRA)-labeled dexamethasone for binding to a human glucocorticoid receptor (GR) complex prepared from an insect expression system. The assay buffer was: 10 mM TES, 50 mM KCl, 20 mM Na2MoO4.2H2O, 1.5 mM EDTA, 0.04% w/v CHAPS, 10% v/v glycerol, 1 mM dithiothreitol, pH 7.4. Test compounds were dissolved to 1 mM in neat DMSO and then further diluted to 10× assay concentration in assay buffer supplemented with 10% v/v DMSO. Test compounds were serially diluted at 10× assay concentrations in 10% DMSO-containing buffer in 96-well polypropylene plates. Binding reaction mixtures were prepared in 96-well black Dynex microtiter plates by sequential addition of the following assay components to each well: 15 μL of 10× test compound solution, 85 μL of GR-containing baculovirus lysate diluted 1:170 in assay buffer, and 50 μL of 15 nM TAMRA-labeled dexamethasone. Positive controls were reaction mixtures containing no test compound; negative controls (blanks) were reaction mixtures containing 0.7 μM to 2 μM dexamethasone. […] IC50 values were determined by iterative non-linear curve fitting of the FP signal data to a 4-parameter logistic equation.

SMILES | activity in the GR binding assay
CC(C)(CC(O)(Cn1ccc(=O)c2cnccc21)C(F)(F)F)c1cc(-c2cncnc2)cc2c1OCC2 (stereo not drawn) [1-[2-Hydroxy-4-methyl-4-(5-pyrimidin-5-yl-2,3-dihydrobenzofuran-7-yl)-2-trifluoromethylpentyl]-1H-[1,6]naphthyridin-4-one] | potent activity
CC(C)(CC(O)(Cn1cc(Cl)c(=O)c2sccc21)C(F)(F)F)c1cccc2c1OCC2 (stereo not drawn) [6-Chloro-4-[4-(2,3-dihydrobenzofuran-7-yl)-2-hydroxy-4-methyl-2-trifluoromethylpentyl]-4H-thieno[3,2-b]pyridin-7-one] | potent activity
CC(C)(CC(O)(Cn1cc(Cl)c(=O)c2sccc21)C(F)(F)F)c1cc(-c2cncnc2)cc2c1OCC2 (stereo not drawn) [6-Chloro-4-[2-hydroxy-4-methyl-4-(5-pyrimidin-5-yl-2,3-dihydrobenzofuran-7-yl)-2-trifluoromethylpentyl]-4H-thieno[3,2-b]pyridin-7-one] | potent activity
CC(C)(CC(O)(Cn1cc(Cl)c(=O)c2cnccc21)C(F)(F)F)c1cc(-c2cncnc2)cc2c1OCC2 (stereo not drawn) [3-Chloro-1-[2-hydroxy-4-methyl-4-(5-pyrimidin-5-yl-2,3-dihydrobenzofuran-7-yl)-2-trifluoromethylpentyl]-1H-[1,6]naphthyridin-4-one] | potent activity
COc1ccc(F)cc1C(C)(C)CC(O)(Cn1ccc(=O)c2sccc21)C(F)(F)F (stereo not drawn) [4-[4-(5-Fluoro-2-methoxyphenyl)-2-hydroxy-4-methyl-2-trifluoromethylpentyl]-4H-thieno[3,2-b]pyridin-7-one] | potent activity
COc1ccc(-c2cccnc2)cc1C(C)(C)CC(O)(Cn1ccc(=O)c2sccc21)C(F)(F)F (stereo not drawn) [4-[2-Hydroxy-4-(2-methoxy-5-pyridin-3-ylphenyl)-4-methyl-2-trifluoromethylpentyl]-4H-thieno[3,2-b]pyridin-7-one] | potent activity
COc1c(Br)cccc1C(C)(C)CC(O)(Cn1ccc(=O)c2sccc21)C(F)(F)F (stereo not drawn) [4-[4-(3-Bromo-2-methoxyphenyl)-2-hydroxy-4-methyl-2-trifluoromethylpentyl]-4H-thieno[3,2-b]pyridin-7-one] | potent activity
COc1ccccc1C(C)(C)CC(O)(Cn1ccc(=O)c2sccc21)C(F)(F)F (stereo not drawn) [4-[2-Hydroxy-4-(2-methoxyphenyl)-4-methyl-2-trifluoromethylpentyl]-4H-thieno[3,2-b]pyridin-7-one] | potent activity
COc1ccc(-c2cccnc2)cc1C(C)(C)CC(O)(Cn1cc(Cl)c(=O)c2sccc21)C(F)(F)F (stereo not drawn) [6-Chloro-4-[2-hydroxy-4-(2-methoxy-5-pyridin-3-ylphenyl)-4-methyl-2-trifluoromethylpentyl]-4H-thieno[3,2-b]pyridin-7-one] | potent activity
CC(C)(CC(O)(Cn1ccc(=O)c2sccc21)C(F)(F)F)c1cc(-c2cncnc2)ccc1O (stereo not drawn) [4-[2-Hydroxy-4-(2-hydroxy-5-pyrimidin-5-ylphenyl)-4-methyl-2-trifluoromethylpentyl]-4H-thieno[3,2-b]pyridin-7-one] | potent activity
COc1ccc(-c2cncnc2)cc1C(C)(C)CC(O)(Cn1cc(Cl)c(=O)c2sccc21)C(F)(F)F (stereo not drawn) [6-Chloro-4-[2-hydroxy-4-(2-methoxy-5-pyrimidin-5-ylphenyl)-4-methyl-2-trifluoromethylpentyl]-4H-thieno[3,2-b]pyridin-7-one] | potent activity
CC(C)(CC(O)(Cn1cc(Cl)c(=O)c2sccc21)C(F)(F)F)c1cccc2c1OCO2 (stereo not drawn) [4-(4-Benzo[1,3]dioxol-4-yl-2-hydroxy-4-methyl-2-trifluoromethylpentyl)-6-chloro-4H-thieno[3,2-b]pyridin-7-one] | potent activity
COc1ccc(F)cc1C(C)(C)CC(O)(Cn1ccc(=O)c2cnccc21)C(F)(F)F (stereo not drawn) [1-[4-(5-Fluoro-2-methoxyphenyl)-2-hydroxy-4-methyl-2-trifluoromethylpentyl]-1H-[1,6]naphthyridin-4-one] | potent activity
CC(C)(CC(O)(Cn1cc(Cl)c(=O)c2sccc21)C(F)(F)F)c1cccc(-c2ccccc2)c1 (stereo not drawn) [4-(4-Biphenyl-3-yl-2-hydroxy-4-methyl-2-trifluoromethylpentyl)-6-chloro-4H-thieno[3,2-b]pyridin-7-one] | potent activity

Other lines, results leading:

activity in the GR binding assay | SMILES
potent activity | CC(C)(CC(O)(Cn1ccc(=O)c2cnccc21)C(F)(F)F)c1cc(F)ccc1O (stereo not drawn) [1-[4-(5-Fluoro-2-hydroxyphenyl)-2-hydroxy-4-methyl-2-trifluoromethylpentyl]-1H-[1,6]naphthyridin-4-one]
potent activity | CC(C)(CC(O)(Cn1cc(Cl)c(=O)c2cnccc21)C(F)(F)F)c1cccc2c1OCO2 (stereo not drawn) [1-(4-Benzo[1,3]dioxol-4-yl-2-hydroxy-4-methyl-2-trifluoromethylpentyl)-3-chloro-1H-[1,6]naphthyridin-4-one]
potent activity | CC(C)(CC(O)(Cn1cc(Cl)c(=O)c2cnccc21)C(F)(F)F)c1cc(-c2cccnc2)cc2c1OCC2 (stereo not drawn) [3-Chloro-1-[2-hydroxy-4-methyl-4-(5-pyridin-3-yl-2,3-dihydrobenzofuran-7-yl)-2-trifluoromethylpentyl]-1H-[1,6]naphthyridin-4-one]
potent activity | Cc1ccc(F)cc1C(C)(C)CC(O)(Cn1ccc(=O)c2sccc21)C(F)(F)F (stereo not drawn) [4-[4-(5-Fluoro-2-methylphenyl)-2-hydroxy-4-methyl-2-trifluoromethylpentyl]-4H-thieno[3,2-b]pyridin-7-one]
potent activity | COc1c(C)cccc1C(C)(C)CC(O)(Cn1ccc(=O)c2sccc21)C(F)(F)F (stereo not drawn) [4-[2-Hydroxy-4-(2-methoxy-3-methylphenyl)-4-methyl-2-trifluoromethylpentyl]-4H-thieno[3,2-b]pyridin-7-one]
potent activity | Cc1cccc(C(C)(C)CC(O)(Cn2ccc(=O)c3sccc32)C(F)(F)F)c1O (stereo not drawn) [4-[2-Hydroxy-4-(2-hydroxy-3-methylphenyl)-4-methyl-2-trifluoromethylpentyl]-4H-thieno[3,2-b]pyridin-7-one]
potent activity | CC(C)(CC(O)(Cn1ccc(=O)c2sccc21)C(F)(F)F)c1cccc2c1OCC2 (stereo not drawn) [4-[4-(2,3-Dihydrobenzofuran-7-yl)-2-hydroxy-4-methyl-2-trifluoromethylpentyl]-4H-thieno[3,2-b]pyridin-7-one]
potent activity | Cc1ccc(F)cc1C(C)(C)CC(O)(Cn1ccc(=O)c2cnccc21)C(F)(F)F (stereo not drawn) [1-[4-(5-Fluoro-2-methylphenyl)-2-hydroxy-4-methyl-2-trifluoromethylpentyl]-1H-[1,6]naphthyridin-4-one]
potent activity | CC(C)(CC(O)(Cn1cc(Br)c(=O)c2sccc21)C(F)(F)F)c1cccc2c1OCC2 (stereo not drawn) [6-Bromo-4-[4-(2,3-dihydrobenzofuran-7-yl)-2-hydroxy-4-methyl-2-trifluoromethylpentyl]-4H-thieno[3,2-b]pyridin-7-one]
potent activity | CC(C)(CC(O)(Cn1ccc(=O)c2sccc21)C(F)(F)F)c1cc(-c2cncnc2)cc2c1OCC2 (stereo not drawn) [4-[2-Hydroxy-4-methyl-4-(5-pyrimidin-5-yl-2,3-dihydrobenzofuran-7-yl)-2-trifluoromethylpentyl]-4H-thieno[3,2-b]pyridin-7-one]
